Results published in patent US11472798B2 (Mission Therapeutics Limited, priority 2014, dated 2022).

Target: T1, UCHL1 (Homo sapiens, UniProt P09936)
T1 construct: made in house; host or cells: HEK293T
T1 sequence (P09936 1-223): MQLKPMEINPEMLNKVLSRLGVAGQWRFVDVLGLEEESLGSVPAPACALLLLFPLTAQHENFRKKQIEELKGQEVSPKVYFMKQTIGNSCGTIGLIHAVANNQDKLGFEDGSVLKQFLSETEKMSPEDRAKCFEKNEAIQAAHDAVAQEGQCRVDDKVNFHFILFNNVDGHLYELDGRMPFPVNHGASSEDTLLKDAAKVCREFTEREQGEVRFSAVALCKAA
Assay: UCHL1 biochemical IC50 assay (fluorescence polarisation)
Details: 30 min enzyme/compound pre-incubation at room temp, read after 2 hr incubation, read-out: Activity range (UCHL1 biochemical IC50 assay)
Source text: Biological Activity of Compounds of the Invention Abbreviations: TAMRA carboxytetramethylrhodamine PCR polymerase chain reaction PBS phosphate buffered saline EDTA ethylenediaminetetraacetic acid Tris 2-amino-2-(hydroxymethyl)-1,3-propanediol NP-40 Nonidet P-40, octylphenoxypolyethoxyethanol BSA bovine serum albumin In Vitro UCHL1 Inhibition Assay Expression and Purification of UCHL1
The UCHL1 construct was PCR amplified and cloned into a pFLAG-CMV-6a vector (Sigma-Aldrich) with an N-terminal FLAG tag. HEK293T cells were transfected with FLAG-UCHL1 using TransIT-LT1 transfection reagent (Mirus) according to the manufacturer's instructions. Cells were harvested 40 hours after transfection. Cells were washed once with PBS and scraped in lysis buffer (50 mM Tris, pH 7.5, 150 mM NaCl, 3 mM EDTA, 0.5% NP40, 10% glycerol, 5 mM beta-mercaptoethanol, protease inhibitors (complete mini, Roche) and phosphatase inhibitors (PhosSTOP mini, Roche). Lysates were incubated for 30 min on ice and centrifuged at 1200 rpm for 10 min at 4° C. Soluble supernatant was added to FLAG affinity resin (EZview Rad ANTI-FLAG M2 affinity gel, Sigma-Aldrich) equilibrated in low salt buffer (20 mM Tris, pH 7.5, 150 mM NaCl, 0.5 mM EDTA, 5 mM beta-mercaptoethanol) and incubated at 4° C. for 3 hours rotating. The resin was spun at 2000 rpm for 2 min and the supernatant was removed. The resin was washed two times with low salt buffer and one time with high salt buffer (20 mM Tris, pH 7.5, 500 mM NaCl, 0.5 mM EDTA, 5 mM beta-mercaptoethanol, protease inhibitors (complete mini, Roche) and phosphatase inhibitors (PhosSTOP mini, Roche). To elute the bound UCHL1, elution buffer (10 mM Tris, pH 7.5, 150 mM NaCl, 0.5 mM FDTA, 10% glycerol, 0.5% NP40, 5 mM beta-mercaptoethanol, 0.15 mg/ml 3×FLAG peptide (Sigma-Aldrich)) was added to the resin and incubated at 4° C. for 2.5 hours rotating. The resin was centrifuged at 4000 rpm for 30 seconds, and the supernatant containing purified FLAG-UCHL1 was removed and stored at −80° C.
UCHL1 Biochemical IC50 Assay
Dilution plates were prepared at 21 times the final concentration (2100 μM for a final concentration of 100 µM) in 50% DMSO in a 96-well polypropylene V-bottom plate (Greiner #651201). A typical 8-point dilution series to be 100, 30, 10, 3, 1, 0.3, 0.1, 0.03 μM final. Reactions were performed in duplicate in black 384 well plates (small volume, Greiner 784076) in a final reaction volume of 21 μl. Either 1 μl of 50% DMSO or diluted compound was added to the plate. UCHL1 was diluted in reaction buffer (20 mM Tris, pH 7.5, 100 mM NaCl, 0.05% Tween 20, 0.5 mg/ml BSA, 5 mM—beta mercaptoethanol) to the equivalent of 0.05 μl/well and 10 μl of diluted UCHL1 was added to the compound. Enzyme and compound were incubated for 30 min at room temp. Reactions were initiated by the addition of 50 nM of TAMRA labelled peptide linked to ubiquitin via an iso-peptide bond as fluorescence polarisation substrate. Reactions were read immediately after addition of substrate and following a 2 hr incubation at room temperature. Readings were performed on a Pherastar Plus (BMG Labtech). λ Excitation 540 nm; k Emission 590 nm.

| SMILES | IC50 [nM] |
| --- | --- |
| N#CN1CC[C@H](C(=O)Nc2cccc(-c3ccccc3)n2)C1 [Example 55, (S)-1-cyano-N-(6-phenylpyridin-2-yl)pyrrolidine 3-carboxamide] | 1000 to 10000 |
| N#CN1CC[C@H](C(=O)Nc2ncc(C3CCOCC3)s2)C1 [Example 59, (S)-1-cyano-N-(5-(tetrahydro-2H-pyran-4-yl)thiazol-2-yl)pyrrolidine-3-carboxamide] | < 1000 |
| N#CN1CC[C@H](C(=O)Nc2nc3ccc(-n4nccn4)cc3s2)C1 [Example 63, (S)-N-(6-(2H-1,2,3-triazol-2-yl)benzo[d]thiazol-2-yl)-1-cyano-pyrrolidine-3-carboxamide] | 1000 to 10000 |
| CNC(=O)c1ccc(-c2cnc(NC(=O)[C@H]3CCN(C#N)C3)s2)cc1 [Example 64, (S)-1-cyano-N-(5-(4-(methyl-carbamoyl)phenyl)thiazol-2-yl)pyrrolidine-3-carboxamide] | < 1000 |
| N#CN1CC[C@H](C(=O)Nc2ncc(-c3ccc(C(F)(F)F)cc3)s2)C1 [Example 68, (S)-1-cyano-N-(5-(4-(trifluoromethyl)phenyl)thiazol-2-yl)pyrrolidine-3-carboxamide] | < 1000 |
| N#CN1CC[C@H](C(=O)Nc2ncc(-c3ccccn3)s2)C1 [Example 70, (S)-1-cyano-N-(5-(pyridin-2-yl)thiazol-2-yl)pyrrolidine-3-carboxamide] | 1000 to 10000 |
| C[C@H]1[C@@H](C(=O)Nc2ncc(-c3ccccc3)s2)CCN1C#N [Example 72, (2S,3S)-1-cyano-2-methyl-N-(5-phenylthiazol-2-yl)pyrrolidine-3-carboxamide] | < 1000 |
| C[C@H]1[C@@H](C(=O)Nc2ncc(-c3ccc(F)cc3)s2)CCN1C#N [Example 73, (2S,3S)-1-cyano-N-(5-(4-fluorophenyl)thiazol-2-yl)-2-methylpyrrolidine-3-carboxamide] | < 1000 |
| C[C@H]1[C@@H](C(=O)Nc2cn(-c3ccccc3)cn2)CCN1C#N [Example 74, (2S,3S)-1-cyano-2-methyl-N-(1-phenyl-1H-imidazol-4-yl)pyrrolidine-3-carboxamide] | < 1000 |
| C[C@H]1[C@@H](C(=O)Nc2ncc(C3CCOCC3)s2)CCN1C#N [Example 76, (2S,3S)-1-cyano-2-methyl-N-(5-(tetrahydro-2H-pyran-4-yl)thiazol-2-yl)pyrrolidine-3-carboxamide] | < 1000 |
| CC1(C(=O)Nc2cn(-c3ccccc3)cn2)CCN(C#N)C1 (stereo not shown) [Example 79, 1-cyano-3-methyl-N-(1-phenyl-1H-imidazol-4-yl)pyrrolidine-3-carboxamide] | 10000 to 30000 |
| COCC1(C(=O)Nc2ncc(-c3ccccc3)s2)CCN(C#N)C1 (stereo not shown) [Example 80, I-cyano-3-(methoxymethyl)-N-(5-phenylthiazol-2-yl)pyrrolidine-3-carboxamide] | 10000 to 30000 |
| C[C@@H]1CN(C#N)C[C@H]1C(=O)Nc1ncc(-c2ccccc2)s1 [Example 82, (3S,4S)-1-cyano-4-methyl-N-(5-phenylthiazol-2-yl)pyrrolidine-3-carboxamide] | < 1000 |
| Cc1cnc(NC(=O)[C@@H]2CN(C#N)C[C@H]2C)s1 [Example 83, (3S,4S)-1-cyano-4-methyl-N-(5-methylthiazol-2-yl)pyrrolidine-3-carboxamide] | 1000 to 10000 |

The next lines start with the values.

| IC50 [nM] | SMILES |
| --- | --- |
| 1000 to 10000 | N#CN1CC[C@H](C(=O)Nc2nc3c(Br)cccc3s2)C1 [Example 48, (S)-N-(4-bromobenzo[d]thiazol-2-yl)-1-cyano-pyrrolidine-3-carboxamide] |
| 1000 to 10000 | N#CN1CC[C@H](C(=O)Nc2cn3ccccc3n2)C1 [Example 49, (S)-1-cyano-N-N-(imidazo[1,2-a]pyridin-2-yl)-pyrrolidine-3-carboxamide] |
| 1000 to 10000 | N#CN1CC[C@H](C(=O)Nc2cn3ccc(Br)cc3n2)C1 [Example 50, (S)-N-(7-bromoimidazo[1,2-a]pyridin-2-yl)-1-cyano-pyrrolidine-3-carboxamide] |
| < 1000 | N#CN1CC[C@H](C(=O)Nc2cn3cc(Br)ccc3n2)C1 [Example 51, (S)-N-(6-bromoimidazo[1,2-a]pyridin-2-yl)-1-cyano-pyrrolidine-3-carboxamide] |
| 1000 to 10000 | COc1ccnc(NC(=O)[C@H]2CCN(C#N)C2)c1 [Example 53, (S)-1-cyano-N-(4-methoxypyridin-2-yl)pyrrolidine-3-carboxamide] |
| 1000 to 10000 | N#CN1CC[C@H](C(=O)Nc2ccc(-c3ccccc3)cn2)C1 [Example 54, (S)-1-cyano-N-(5-phenylpyridin-2-yl)pyrrolidine-3-carboxamide] |
| 10000 to 30000 | N#CN1CC[C@H](C(=O)Nc2ccc3cccnc3n2)C1 [Example 56, (S)-1-cyano-N-(1,8-naphthyridin-2-yl)pyrrolidine-3-carboxamide] |
| < 1000 | N#CN1CC[C@H](C(=O)Nc2ncc(Cc3ccccc3)s2)C1 [Example 57, (S)-N-(5-benzylthiazol-2-yl)-1-cyanopyrrolidine-3-carboxamide] |
| < 1000 | Cn1nc(NC(=O)[C@H]2CCN(C#N)C2)cc1-c1ccccc1 [Example 60, (S)-1-cyano-N-(1-methyl-5-phenyl-1H-pyrazol-3-yl)pyrrolidine-3-carboxamide] |
| 1000 to 10000 | COC1CCN(c2ccc(NC(=O)[C@H]3CCN(C#N)C3)nc2)CC1 [Example 61, (S)-1-cyano-N-(5-(4-methoxy-piperidin-1-yl)pyridin-2-yl)pyrrolidine-3-carboxamide] |
| < 1000 | N#CN1CC[C@H](C(=O)Nc2nc3ccc(-n4ccnn4)cc3s2)C1 [Example 62, (S)-N-(6-(1H-1,2,3-triazol-1-yl)benzo[d]thiazol-2-yl)-1-cyano-pyrrolidine-3-carboxamide] |
| < 1000 | Cc1nc(NC(=O)[C@H]2CCN(C#N)C2)sc1CN1CCOCC1 [Example 65, (S)-1-cyano-N-(4-methyl-5-(morpholinomethyl)thiazol-2-yl)pyrrolidine-3-carboxamide] |
| < 1000 | N#CN1CC[C@H](C(=O)Nc2ncc(-c3ccc(F)cc3)s2)C1 [Example 66, (S)-1-cyano-N-(5-(4-fluorophenyl)thiazol-2-yl)pyrrolidine-3-carboxamide] |
| < 1000 | N#CN1CC[C@H](C(=O)Nc2ncc(-c3ccc(F)c(F)c3)s2)C1 [Example 67, (S)-1-cyano-N-(5-(3,4-difluorophenyl)thiazol-2-yl)pyrrolidine-3-carboxamide] |
| < 1000 | N#CN1CC[C@H](C(=O)Nc2ncc(-c3ccncc3)s2)C1 [Example 69, (S)-1-cyano-N-(5-(pyridin-4-yl)thiazol-2-yl)pyrrolidine-3-carboxamide] |
| 10000 to 30000 | N#CN1CC[C@@H](C(=O)Nc2ccc(-c3ccccc3)cn2)C1 [Example 71, (R)-1-cyano-N-(5-phenylpyridin-2-yl)pyrrolidine-3-carboxamide] |
| < 1000 | C[C@H]1[C@@H](C(=O)Nc2cc(-c3ccccc3)[nH]n2)CCN1C#N [Example 75, (2S,3S)-1-cyano-2-methyl-N-(5-phenyl-1H-pyrazol-3-yl)pyrrolidine-3-carboxamide] |
| 1000 to 10000 | C[C@H]1[C@@H](C(=O)Nc2ncc(-c3ccccc3Cl)s2)CCN1C#N [Example 77, (2S,3S)—N-(5-(2-chlorophenyl)thiazol-2-yl)-1-cyano-2-methylpyrrolidine-3-carboxamide] |
| 1000 to 10000 | CC1(C(=O)Nc2ncc(-c3ccccc3)s2)CCN(C#N)C1 (stereo not shown) [Example 78, 1-cyano-3-methyl-N-(5-phenylthiazol-2-yl)pyrrolidine-3-carboxamide] |
| 1000 to 10000 | N#CN1CCC(C#N)(C(=O)Nc2ncc(-c3ccccc3)s2)C1 (stereo not shown) [Example 81, 1,3-dicyano-N-(5-phenylthiazol-2-yl)pyrrolidine-3-carboxamide] |
